{"source": "paper PMC3528769", "about": "“Comparative Study of the Fatty Acid Binding Process of a New FABP from Cherax quadricarinatus by Fluorescence Intensity, Lifetime and Anisotropy” (PLoS ONE, 2012)", "format_in_all_cases": "binding", "key": {"Cq-FABP [1]": {"molecular_target": "T1, Cq-FABP (Cherax quadricarinatus, UniProt L0I6Z9)", "T1 sequence (L0I6Z9 entry or part of it)": "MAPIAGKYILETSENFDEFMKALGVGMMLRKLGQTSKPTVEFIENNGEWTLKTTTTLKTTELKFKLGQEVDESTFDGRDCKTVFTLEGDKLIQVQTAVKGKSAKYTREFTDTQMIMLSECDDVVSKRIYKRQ", "test": "ANS fluorescence intensity titration and equilibrium displacement of ANS by fatty acids", "protocol": "Fluorescence emission spectra were measured at 25°C on a Cary-Eclipse spectrofluorimeter (Varian, CA, USA) equipped with a thermostated cell holder, using solutions (70 µl) placed in microcuvettes (pathlength, 0.3 cm). The binding of non-fluorescent fatty acids (PA, OA, LA, EPA and DHA) to Cq-FABP was measured indirectly by equilibrium displacement experiments using ANS as a fluorescent probe, either by measuring the fluorescence emission of ANS or by measuring the FRET between tryptophan and ANS, resulting in the quenching of donor fluorescence. The excitation wavelength was then set at 296 or 350 nm for tryptophan or ANS, respectively; the slit widths and PMT voltage were adjusted to optimize the fluorescence signal at 25°C. For titration experiments, the fluorescence emission spectrum of tryptophan or ANS was measured and the integrated fluorescence signal of tryptophan (315–360 nm) or ANS (440–600 nm) was calculated. For samples containing high concentrations of ANS, the inner-filter effect was not negligible and was corrected. UV-visible absorption spectra were carried out on a Uvikon XL spectrophotometer.\nThe equilibrium dissociation constant (Kd,FA) relative to the binding of fatty acids (FA) to Cq-FABP was determined by competition experiments using ANS displacement and linear regression of the following relationship: [drawing 1] (1) where Kd,ANS is the dissociation constant relative to the binding of ANS to the fatty acid binding site, Kd ^app ,ANS is the apparent dissociation constant of ANS obtained in the presence of a given fatty acid concentration."}, "Cq-FABP [2]": {"molecular_target": "T1, Cq-FABP", "test": "BODIPY-C16 steady-state fluorescence anisotropy titration and competition", "protocol": "The binding of 4,4-difluoro-5, 7-dimethyl-4-bora-3a, 4a-diaza-s-indacene-3-hexadecanoic acid (BODIPY-C16) to Cq-FABP was investigated by measuring the steady-state fluorescence anisotropy parameter using a Beacon instrument (PanVera, Madison, USA), in a cell thermostatically held at 25°C. The excitation and emission bandpass filters were centered at 488 nm (±6 nm) and 525 nm (±15 nm), respectively. Titration experiments were performed in buffer C (supplemented with 10% DMSO (v/v)) by maintening a constant concentration of BODIPY-C16 (200 nM) and by adding increasing concentrations of Cq-FABP. Using a vertical direction for the polarized excitation source, the steady-state fluorescence anisotropy (r) was calculated according to: [drawing 3] (3) where IV and IH correspond to the parallel (vertical) and perpendicular (horizontal) fluorescence emission intensity components, respectively. The fraction of BODIPY-C16/Cq-FABP complexes (i.e. the fraction of BODIPY-C16 bound to Cq-FABP), fb, was calculated using the following relationship: [drawing 4] (4) where r is the measured fluorescence anisotropy value, rf and rb correspond to the fluorescence anisotropy values of free BODIPY-C16 (ligand in the free state, measured in the absence of Cq-FABP) and Cq-FABP-bound BODIPY-C16 (ligand in the bound state, corresponding to the maximum anisotropy value found at the plateau), respectively. […] The Kd characterizing the BODIPY-C16/Cq-FABP complex (Kd,C16) was calculated by fitting the plot of fb versus [Cq-FABP] using the Graphpad Prism 5.0 software.\nThe fluorescence anisotropy-based assay was also used in competition experiments to calculate the Kd values (Kd,FA) characterizing non-fluorescent fatty acids. The measurement of the apparent Kd value characterizing the BODIPY-C16/Cq-FABP complex (Kd ^app ,C16) under different concentration conditions for the non-fluorescent FA allows the calculation of Kd,FA according to: [drawing 5] (5) where Kd,C16 corresponds to the Kd characterizing the BODIPY-C16/Cq-FABP complex (in the absence of any non-fluorescent FA) and Kd ^app ,C16 corresponds to the apparent dissociation constant obtained for a given concentration of non-fluorescent FA. The calculation of Kd,FA was also performed in an independent manner by measuring the IC50 value characterizing each non-fluorescent FA. In this approach, the number of complexes corresponding to [C16] = 200 nM and [Cq-FABP] = 5 µM was varied by increasing the concentration of non-fluorescent FA. The IC50 value corresponds to the concentration of non-fluorescent FA that displaces 50% of C16 from the fatty acid binding site of Cq-FABP and is related to Kd,FA through the Cheng-Prusoff relationship: [drawing 6] (6)"}, "Cq-FABP [3]": {"molecular_target": "T1, Cq-FABP", "test": "cis-Parinaric acid fluorescence intensity titration and competitive displacement", "from_the_text": "Cis-parinaric acid and DAUDA were characterized by fluorescence emission in the 380–500 nm region (λmax,em: 410 nm) and in the 480–650 nm region (λmax,em: 540 nm), respectively (excitation wavelengths were set at 320 or 335 nm for cis-parinaric acid or DAUDA, respectively). The fluorescence intensity enhancement upon binding to Cq-FABP was monitored on a Cary-Eclipse spectrofluorimeter as indicated above. All the fluorescence emission intensities were corrected for the inner-filter effect. The emission intensity of a given fluorophore in the presence of Cq-FABP was also systematically corrected for the emission intensity of the free fluorophore. The calculation of Kd,FA was performed by measuring the IC50 value (inhibition concentration 50%) characterizing each non-fluorescent FA. As DAUDA poorly binds to Cq-FABP (see results section), only cis-parinaric acid (CPA) was used for measuring IC50 values. Titration and equilibrium displacement experiments using CPA were performed in buffer C (supplemented with 10% DMSO (v/v)). For the determination of IC50 values, the number of complexes corresponding to [CPA] = 7 µM and [Cq-FABP] = 5 µM was varied by increasing the concentration of non-fluorescent FA. The IC50 value corresponds to the concentration of non-fluorescent FA that displaces 50% of CPA from the fatty acid binding site of Cq-FABP and is related to Kd,FA through the Cheng-Prusoff relationship: [drawing 2] (2)"}, "[4]": {"conditions": "calculated from equilibrium displacement experiments using the fluorescence intensity of ANS (Eq. 1), read-out: Kd,FA"}, "[5]": {"conditions": "200 nM BODIPY-C16, 5 µM Cq-FABP, read-out: IC50 (displaces 50% of BODIPY-C16 from the fatty acid binding site)"}, "[6]": {"conditions": "calculated from the IC50 values, using Eq. 6, 200 nM BODIPY-C16, 5 µM Cq-FABP, read-out: Kd,FA"}, "[7]": {"conditions": "calculated from the Kd app,C16 values, using Eq. 5, 200 nM BODIPY-C16, read-out: Kd,FA"}}, "note": "Where two headings read alike, the source gives them in different places."}
{"smiles": "CC/C=C\\C/C=C\\C/C=C\\C/C=C\\C/C=C\\CCCC(=O)O", "note": "[EPA, cis-5,8,11,14,17-eicosapentaenoic acid]", "values": [{"measurement": "Kd", "setting": "Cq-FABP [1]; [4]", "result": "2.9 ± 0.3", "unit": "µM"}, {"measurement": "IC50", "setting": "Cq-FABP [2]; [5]", "result": 2.29, "unit": "µM"}, {"measurement": "Kd", "setting": "Cq-FABP [2]; [6]", "result": "2.2 ± 0.4", "unit": "µM"}, {"measurement": "Kd", "setting": "Cq-FABP [2]; [7]", "result": "3.5 ± 0.4", "unit": "µM"}]}
{"smiles": "CCCCC/C=C\\C/C=C\\CCCCCCCC(=O)O", "note": "[LA, linoleic acid]", "values": [{"measurement": "Kd", "setting": "Cq-FABP [1]; [4]", "result": "3.1 ± 0.5", "unit": "µM"}, {"measurement": "Kd", "setting": "Cq-FABP [3]; calculated from the IC50 values (Eq. 2) using the fluorescence intensity of cis-parinaric acid, 7 µM CPA, 5 µM Cq-FABP, read-out: Kd,FA", "result": "3.3 ± 0.7", "unit": "µM"}, {"measurement": "IC50", "setting": "Cq-FABP [2]; [5]", "result": 3.53, "unit": "µM"}, {"measurement": "Kd", "setting": "Cq-FABP [2]; [6]", "result": "3.4 ± 0.4", "unit": "µM"}, {"measurement": "Kd", "setting": "Cq-FABP [2]; [7]", "result": "3 ± 0.4", "unit": "µM"}]}
{"smiles": "CCCCCCCC/C=C\\CCCCCCCC(=O)O", "note": "[OA, oleic acid]", "values": [{"measurement": "Kd", "setting": "Cq-FABP [1]", "result": "2.4 ± 0.4", "unit": "µM"}, {"measurement": "Kd", "setting": "Cq-FABP [3]", "result": "1.3 ± 0.6", "unit": "µM"}, {"measurement": "IC50", "setting": "Cq-FABP [2]", "result": 2.23, "unit": "µM"}, {"measurement": "Kd", "setting": "Cq-FABP [2]; Kd,FA, calculated from the IC50 values, using Eq. 6, 200 nM BODIPY-C16, 5 µM Cq-FABP", "result": "2.15 ± 0.4", "unit": "µM"}, {"measurement": "Kd", "setting": "Cq-FABP [2]; Kd,FA, calculated from the Kd app,C16 values, using Eq. 5, 200 nM BODIPY-C16", "result": "2.6 ± 0.3", "unit": "µM"}]}
{"smiles": "CC\\C=C/C=C/C=C/C=C\\CCCCCCCC(=O)O", "note": "[cis-parinaric acid, reference compound]", "values": [{"measurement": "Kd", "setting": "Cq-FABP [3]; fluorescence enhancement upon binding, 5 µM Cq-FABP, buffer C + 10% DMSO (Fig. S3B), read-out: Kd of cis-parinaric acid", "result": 31.2, "unit": "µM"}]}
